One compound from BindingDB's records for doi:10.1016/j.ejmech.2023.115229 (Sichuan University, 2023) can be followed below.

In this assay the target is Ribosomal protein S6 kinase alpha-2 (Homo sapiens, UniProt Q15349). As to the kind of experiment: Inhibition of RSK3 (unknown origin).
Sequence of Ribosomal protein S6 kinase alpha-2 (Q15349 whole entry): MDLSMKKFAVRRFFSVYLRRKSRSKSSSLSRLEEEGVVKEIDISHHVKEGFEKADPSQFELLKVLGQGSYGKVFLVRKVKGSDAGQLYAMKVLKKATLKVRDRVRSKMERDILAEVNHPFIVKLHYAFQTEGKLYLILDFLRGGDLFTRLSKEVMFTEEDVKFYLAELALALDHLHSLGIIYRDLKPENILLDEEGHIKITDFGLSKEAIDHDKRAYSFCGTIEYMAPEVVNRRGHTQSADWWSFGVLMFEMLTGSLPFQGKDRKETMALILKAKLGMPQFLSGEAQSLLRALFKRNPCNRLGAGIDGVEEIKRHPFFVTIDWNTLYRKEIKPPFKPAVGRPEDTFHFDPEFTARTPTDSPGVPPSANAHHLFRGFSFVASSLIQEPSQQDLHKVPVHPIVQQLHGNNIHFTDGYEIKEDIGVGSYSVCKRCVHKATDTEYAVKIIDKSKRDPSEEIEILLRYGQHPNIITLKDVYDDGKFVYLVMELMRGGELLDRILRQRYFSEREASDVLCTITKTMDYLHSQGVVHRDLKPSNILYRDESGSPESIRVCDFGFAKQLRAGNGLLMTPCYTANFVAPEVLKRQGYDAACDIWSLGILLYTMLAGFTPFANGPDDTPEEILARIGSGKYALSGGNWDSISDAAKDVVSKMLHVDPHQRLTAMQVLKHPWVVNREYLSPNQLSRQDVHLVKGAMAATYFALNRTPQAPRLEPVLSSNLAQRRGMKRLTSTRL

The compound `O=c1c(O)c(-c2ccc(O)c(O)c2)oc2cc(O)ccc12` [2-(3,4-dihydroxyphenyl)-3,7-dihydroxy-chromen-4-one] displayed an IC50 of 891 nM.

The term IC50 denotes the concentration that gives 50% inhibition. Read a high IC50 as a need for much substance.
